Consider four molecules from EPA's ToxValDB 9.5 (doi:10.2903/j.efsa.2017.4981).

“And” between values parts separate entries of the source, which are not always exact repeats. Equal values may be shown once.

One data set relates to Tagia sp. The conditions noted are these: chronic/long-term, duration: 56 days.
The next data set deals with Rattus norvegicus. The conditions noted are these: for LD50: acute, mortality.
The next data set deals with Folsomia candida. The conditions noted are these: chronic/long-term; duration: 28 days; mortality.
Another data set relates to Canidae. The following applies: oral, Dog Other, body weight.
In the next data set the test system is Plant. The following applies: chronic/long-term; duration: 4 months.
A further data set has as its system Apis mellifera. The conditions noted are these: acute, duration: 48 hours, mortality.
The next data set concerns Oncorhynchus mykiss. The following applies: mortality.
Another data set has as its system Typhlodromus pyri. The conditions noted are these: acute; mortality.
The test system of the next data set is Anas platyrhynchos. The following applies: reproductive.
The test system of the next data set is Daphnia magna. The following applies: chronic/long-term; duration: 21 days; reproduction.
Where [1] appears, read: chronic, duration: 2 years, oral, diet, organ weight.
Setting [2] is: reproduction developmental, reproduction.
Setting [3] is: subchronic, duration: 90 days, oral, diet, F, organ weight.

Usually NOAEL stands for the highest dose or exposure tested at which no adverse effect was seen. The LC50 is the concentration lethal to half of the exposed cells or organisms. Higher therefore signals lower toxicity.

Regarding `CCOCCN(C(C)=O)C(=C(C)C)c1ccccc1`, the NOEC worked out at 30 mg/kg in the data set with Tagia sp. (growth) and 50 mg/kg in the data set with Folsomia candida. Further, the NOAEL with Rattus norvegicus (setting [1]) was found to be 1 mg/kg-day; in the data set with Rattus norvegicus (setting [2]) it was 8 mg/kg-day; in the data set with Rattus norvegicus (setting [3]) it was 8 mg/kg-day; in the data set with Canidae (subchronic, duration: 90 days), 8 mg/kg-day.
As to `CCOCCN(C(=O)CS(=O)(=O)O)C(=C(C)C)c1ccccc1`, the values for the NOEC in the data set on Tagia sp. (growth) and with Folsomia candida were 100 mg/kg and 93.3 mg/kg, respectively. In the data set on Rattus norvegicus (oral), this molecule came in with an LD50 of over 2000 mg/kg-day. In addition, the no-observed-adverse-effect level (NOAEL) with Rattus norvegicus (short-term, duration: 4 weeks, oral, diet) amounted to 410 mg/kg-day.
On to `CC(C)=C(c1ccccc1)N(CC(=O)O)C(=O)CS(=O)(=O)O` [N-(2-Methyl-1-phenylprop-1-en-1-yl)-N-(sulfoacetyl)glycine], for which the NOEC turned out to be 60 mg/kg in the data set on Tagia sp. (growth) and 100 mg/kg with Folsomia candida.
The molecule `CCOCCN(C(=O)CCl)C(=C(C)C)c1ccccc1` [Pethoxamid] gave an NOAEC with Plant of 8 µg/L. The LD50 in the data set on Apis mellifera (dermal) was over 200 µg/piece; in the data set with Apis mellifera (oral, unspecified) it was over 200 µg/piece; with Rattus norvegicus (oral, M), 983 mg/kg-day; in the data set with Colinus virginianus (acute, oral, mortality), 872 mg/kg-day. In addition, the NOEC in the data set with Tagia sp. (reproduction) is 0.8 mg/kg; in the data set with Oncorhynchus mykiss (chronic/long-term, duration: 94 days), 0.0924 mg/L; with Daphnia magna, 2.8 mg/L. In addition, the median lethal concentration (LC50) with Oncorhynchus mykiss (acute, duration: 96 hours) was 2.2 µg/mL and 2.19 µg/mL. In the data set with Typhlodromus pyri, this molecule displayed an LEC of at most 1200 g/ha. In addition, the no observed adverse effect level (NOAEL) is 1 mg/kg-day in the data set with Rattus norvegicus (setting [1]); 24 mg/kg-day in the data set with Rattus norvegicus (reproduction developmental, oral, diet, F, reproduction); 8 mg/kg-day in the data set on Rattus norvegicus (setting [2]); 8 mg/kg-day in the data set with Rattus norvegicus (setting [3]); 2 mg/kg-day with Canidae (chronic, duration: 1 years); 8 mg/kg-day in the data set with Canidae (subchronic, duration: 90 days). In addition, the NOEL in the data set with Colinus virginianus (reproduction developmental) came out at 100 mg/kg-day; with Anas platyrhynchos it was 396 mg/kg-day.
